Patent publication US4585877A, “Process for preparing 1,8-diethyl-1,3,4,9-tetrahydropyrano(3,4-b)-indole-1-acetic acid, etodolac” (American Home Products Corporation, priority 1985, dated 1986)
Where two headings read alike, the source gives them in different places.

How the values were obtained:
[1] = tested on: adjuvant edema; assay: Preventive Adjuvant Edema test (antiinflammatory activity); assay type: in vivo; details: po
[2] = tested on: Phenylquinone-induced writhing; assay: Effects on Phenylquinone-Induced Writhing in Mice test (analgesic activity); assay type: in vivo; details: Mus musculus, po, read-out: antinociceptive ED50

| Compound | ED50 ([1]; Preventive Adjuvant-Edema, p.o., read-out: ED50) [mg/kg] | ED50 ([2]; Phenylquinone-induced writhing in mice, p.o.) [mg/kg] | ED50 [1] [mg/kg] | ED50 [2] [mg/kg] |
| --- | --- | --- | --- | --- |
| CCc1cccc2c3c([nH]c12)C(CC)(CC(=O)O)OCC3 (stereo not shown) [etodolac, 1,8-Diethyl-1,3,4,9-tetrahydropyrano[3,4-b]indole-1-acetic Acid] | 4 | 154 | – | – |
| CC(=O)Oc1ccccc1C(=O)O [aspirin] | – | – | 184 | 54 |
